Experimental data taken from the supplement of paper PMC10307832.

Tests used:
Experiment in all cases: relative viability (nuclei count vs DMSO), 5 days (fraction); higher = more cells survive
Dovitinib + Trametinib = compound: CN1CCN(c2ccc3nc(-c4c(N)c5c(F)cccc5[nH]c4=O)[nH]c3c2)CC1 [Dovitinib] + CC(=O)Nc1cccc(-n2c(=O)n(C3CC3)c(=O)c3c(Nc4ccc(I)cc4F)n(C)c(=O)c(C)c32)c1 [Trametinib] (partner 0.02 µM)
In short: (§1)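 Relative viability equals treated-well nuclei counts divided by vehicle-well nuclei counts. Counts came from 4× images of lung cancer cell lines grown in 1536-well plates for 5 days after pin-tool dosing on the day after seeding. Dosing used one drug alone or a fixed anchor-drug dose plus five library-drug doses (not always all listed) in √10 steps, and values are medians of duplicate plates.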

Dovitinib + Lapatinib = compound: CN1CCN(c2ccc3nc(-c4c(N)c5c(F)cccc5[nH]c4=O)[nH]c3c2)CC1 [Dovitinib] + CS(=O)(=O)CCNCc1ccc(-c2ccc3ncnc(Nc4ccc(OCc5cccc(F)c5)c(Cl)c4)c3c2)o1 [Lapatinib] (partner 2 µM)
In short: as §1

Dovitinib + Phenformin = compound: CN1CCN(c2ccc3nc(-c4c(N)c5c(F)cccc5[nH]c4=O)[nH]c3c2)CC1 [Dovitinib] + N=C(N)NC(=N)NCCc1ccccc1 [Phenformin] (partner 250 µM)
In short: as §1

Dovitinib + Olaparib = compound: CN1CCN(c2ccc3nc(-c4c(N)c5c(F)cccc5[nH]c4=O)[nH]c3c2)CC1 [Dovitinib] + O=C(c1cc(Cc2n[nH]c(=O)c3ccccc23)ccc1F)N1CCN(C(=O)C2CC2)CC1 [Olaparib] (partner 8 µM)
In short: as §1

Cell Line | relative viability (Dovitinib + Trametinib; first compound 0.02 µM) | relative viability (Dovitinib + Trametinib; first compound 0.06325 µM) | relative viability (Dovitinib + Trametinib; first compound 0.2 µM) | relative viability (Dovitinib + Trametinib; first compound 0.6325 µM) | relative viability (Dovitinib + Trametinib; first compound 2 µM) | relative viability (Dovitinib + Lapatinib; first compound 0.02 µM) | relative viability (Dovitinib + Lapatinib; first compound 0.06325 µM) | relative viability (Dovitinib + Lapatinib; first compound 0.2 µM) | relative viability (Dovitinib + Lapatinib; first compound 0.6325 µM) | relative viability (Dovitinib + Lapatinib; first compound 2 µM) | relative viability (Dovitinib + Phenformin; first compound 0.02 µM) | relative viability (Dovitinib + Phenformin; first compound 0.06325 µM) | relative viability (Dovitinib + Phenformin; first compound 0.2 µM) | relative viability (Dovitinib + Phenformin; first compound 0.6325 µM) | relative viability (Dovitinib + Phenformin; first compound 2 µM) | relative viability (Dovitinib + Olaparib; first compound 0.02 µM) | relative viability (Dovitinib + Olaparib; first compound 0.06325 µM) | relative viability (Dovitinib + Olaparib; first compound 0.2 µM) | relative viability (Dovitinib + Olaparib; first compound 0.6325 µM) | relative viability (Dovitinib + Olaparib; first compound 2 µM)
COR-L 105 | 0.533 | 0.405 | 0.441 | 0.459 | 0.577 | 0.39 | 0.367 | 0.341 | 0.327 | 0.407 | 0.396 | 0.52 | 0.506 | 0.486 | 0.62 | 0.691 | 0.712 | 0.72 | 0.765 | 0.638
LK-2 | 0.758 | 0.751 | 0.784 | 0.809 | 0.585 | 0.878 | 0.914 | 0.858 | 0.83 | 0.709 | 0.539 | 0.306 | 0.38 | 0.486 | 0.342 | 0.738 | 0.818 | 0.676 | 0.935 | 0.739
NCI-H727 | 0.405 | 0.401 | 0.407 | 0.416 | 0.426 | 0.904 | 0.629 | 0.673 | 0.882 | 0.91 | 0.524 | 0.488 | 0.664 | 0.516 | 0.642 | 0.584 | 0.72 | 0.719 | 0.679 | 0.674
RERF-LC-KJ | 0.928 | 0.837 | 1.01 | 0.869 | 0.864 | 0.94 | 0.884 | 0.853 | 0.909 | 0.825 | 0.412 | 0.417 | 0.447 | 0.42 | 0.384 | 0.932 | 0.892 | 0.939 | 0.982 | 0.896
NCI-H2023 | 0.549 | 0.493 | 0.405 | 0.5 | 0.537 | 0.778 | 0.739 | 1.13 | 0.918 | 0.808 | 0.38 | 0.416 | 0.457 | 0.38 | 0.398 | 0.454 | 0.487 | 0.541 | 0.432 | 0.482
NCI-H322M | 0.557 | 0.506 | 0.507 | 0.496 | 0.543 | 0.5 | 0.53 | 0.587 | 0.657 | 0.57 | 0.685 | 0.737 | 0.811 | 0.751 | 0.815 | 0.727 | 0.697 | 0.74 | 0.858 | 0.881
NCI-H1666 | 1.02 | 0.881 | 0.939 | 0.945 | 0.855 | 0.657 | 0.627 | 0.667 | 0.596 | 0.69 | 0.612 | 0.579 | 0.588 | 0.554 | 0.566 | 0.755 | 0.777 | 0.756 | 0.731 | 0.77
NCI-H1648 | 0.581 | 0.413 | 0.471 | 0.477 | 0.527 | – | – | – | – | – | – | – | – | – | – | 0.506 | 0.815 | 0.932 | 0.667 | 0.77
NCI-H2087 | 0.274 | 0.221 | 0.251 | 0.196 | 0.214 | 0.893 | 0.958 | 1.01 | 1.02 | 1.16 | 0.415 | 0.437 | 0.516 | 0.53 | 0.467 | 0.631 | 0.519 | 0.604 | 0.571 | 0.689
